{"source": "patent US5994368A", "about": "“Pyridopyrimidones, quinolines and fused N-heterocycles as bradykinin antagonists” (Fujisawa Pharmaceutical Co., Ltd., priority 1994, dated 1999)", "note": "Counter-ions that a name gives are not always drawn.", "data": [{"target": "T1, Bradykinin receptor (Cavia porcellus, UniProt O70526)", "T1 construct": "The ileum was removed and homogenized in buffer; from tissue; host or cells: guinea pig ileum, crude membrane suspension", "T1 sequence (O70526 1-372)": "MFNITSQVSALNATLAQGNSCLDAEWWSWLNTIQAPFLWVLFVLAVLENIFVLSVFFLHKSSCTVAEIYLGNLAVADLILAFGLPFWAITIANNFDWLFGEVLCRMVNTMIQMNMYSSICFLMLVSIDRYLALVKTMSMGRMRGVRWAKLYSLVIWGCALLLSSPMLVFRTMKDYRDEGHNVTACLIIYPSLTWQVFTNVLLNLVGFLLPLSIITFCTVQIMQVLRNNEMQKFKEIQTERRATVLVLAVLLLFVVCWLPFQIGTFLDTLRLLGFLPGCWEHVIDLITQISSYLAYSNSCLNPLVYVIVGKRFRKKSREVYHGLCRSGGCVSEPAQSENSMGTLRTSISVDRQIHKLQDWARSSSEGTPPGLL", "assay": "3H-Bradykinin receptor binding (crude ileum membrane)", "design": "species or system guinea pig (male Hartly strain)", "conditions": "concentration: 1 × 10^-6 M; guinea pig ileum membrane, room temperature, 60 minutes", "procedure": "^3 H-Bradykinin receptor binding\n(a) Crude ileum membrane preparation\nMale Hartly strain guinea pigs were sacrificed by decapitation. The ileum was removed and homogenized in buffer (50 mM trimethylaminoethanesulfonic acid (TES), 1 mM 1,10-phenanthroline pH 6.8). The homogenate was centrifuged (1000× g, 20 minutes) to remove tissue clumps and the supernatant was centrifuges (100,000× g, 60 minutes) to yield a pellet. The pellet was resuspended in buffer (50 mM TES, 1 mM 1,10-phenanthroline, 140 mg/l bacitracin, 1 mM dithiothreiol, 0.1% bovine serum albumin pH 6.8) and homogenized with a glass-teflon homogenizer to yield suspension which was referred to as crude membrane suspension. The obtained membrane suspension was stored at -80° C. until use.\n(b) ^3 H-Bradykinin binding to the membrane\nThe frozen crude membrane suspension was thawed. In binding assays, ^3 H-Bradykinin ([…]) and drug (1×10^-6 M) were incubated with 50 μl of the membrane suspension at room temperature for 60 minutes in a final volume of 250 μl. Separation of receptor-bound from free ^3 H-Bradykinin is achieved by immediate filtration under vacuum and washed three times with 5 ml of ice-cold buffer (50 mM Tris-HCl pH 7.5). Non-specific binding was defined as binding in the presence of 0.1 μM Bradykinin. The radioactivity retained on rinsed filters was determined by a liquid-scintillation counter.", "units": {"inhibition at 1 µM": "%"}, "values": [{"smiles": "Cc1ccc2cccc(OCc3c(Cl)ccc(N(C)C(=O)CNC(=O)CNc4nc5ccccc5s4)c3Cl)c2n1", "note": "[2-(14), 8-[3-[N-[2-(2-Benzothiazolylamino)acetylglycyl]-N-methylamino]-2,6-dichlorobenzyloxy]-2-methylquinoline]", "inhibition at 1 µM": 96}, {"smiles": "CNC(=O)c1ccc(/C=C/C(=O)NCC(=O)N(C)c2ccc(Cl)c(CNc3cccc4ccc(C)nc34)c2Cl)cc1", "note": "[Example 73-(4), 8-[2,6-dichloro-3-[N-methyl-N-[4-(methylcarbamoyl)cinnamoylglycyl]amino]benzylamino]-2-methylquinoline dihydrochloride]", "inhibition at 1 µM": 95}, {"smiles": "CNC(=O)c1nc2ccc(C(=O)NCC(=O)N(C)c3ccc(Cl)c(COc4cccc5ccc(C)nc45)c3Cl)cc2cc1C", "note": "[25-(2) dihydrochloride]", "inhibition at 1 µM": 96}, {"smiles": "CNC(=O)c1ccc(/C=C/C(=O)NCC(=O)N(C)c2ccc(C)c(COc3cccn4c(=O)cc(C)nc34)c2C)cc1", "note": "[90-(2), 9-[2,6-Dimethyl-3-[N-methyl-N-[4(methylcarbomoyl)cinnamoylglycyl]amino]benzyloxy]-2-methyl-4H-pyrido-[1,2-a]pyrimidin-4-one]", "inhibition at 1 µM": 98}, {"smiles": "CNC(=O)c1ccc(/C=C/C(=O)NCC(=O)N(C)c2ccc(Cl)c(COc3cccc4ccc(C)nc34)c2)cc1", "note": "[37-(5) hydrochloride]", "inhibition at 1 µM": 100}, {"smiles": "CNC(=O)c1ccc(/C=C/C(=O)NCC(=O)N(C)c2ccc(Cl)c(COc3cccc4c(NCCOC)cc(C)nc34)c2Cl)cc1", "note": "[10-(9) dihydrochloride]", "inhibition at 1 µM": 99}, {"smiles": "COC(=O)c1cncc(NC(=O)NCC(=O)N(C)c2ccc(Cl)c(COc3cccc4ccc(C)nc34)c2Cl)c1", "note": "[34-(3), 8-[2,6-Dichloro-3-[N-[N'-(5-methoxycarbonylpyridin-3-yl)ureidoacetyl]-N-methylamino]benzyloxy]-2-methylquinoline]", "inhibition at 1 µM": 100}]}]}
